Experimental data reported in US11440913B2, “Aminoimidazopyridazines as kinase inhibitors” (BRISTOL-MYERS SQUIBB COMPANY, priority 2017, dated 2022).
Like-named read-outs stand apart in the source and are kept apart here.

How the values were obtained:
[1] = target: His-GST-TVMV-hRIPK1(1-324) (Homo sapiens (Human), UniProt Q13546); experiment: RIPK1 HTRF Binding Assay; settings: HTRF binding, 1 h at rt; read-out: RIPK1 (IC50)
Description: A solution was prepared containing 0.2 nM Anti GST-Tb (Cisbio, 61GSTTLB), 90.6 nM probe and 1 nM His-GST-TVMV-hRIPK1(1-324) in FRET Buffer (20 mM HEPES, 10 mM MgCl2, 0.015% Brij-35, 4 mM DTT, 0.05 mg/mL BSA). Using Formulatrix Tempest, the detection antibody/enzyme/probe solution ([…]) was dispensed into wells of a 1536 plate (Black Low Binding Polystyrene 1536 Plate (Corning, 3724)) containing 10 nL of compounds of interest at appropriate concentration in DMSO. The plate was incubated at rt for 1 h. FRET was measured using the EnVision plate reader (Excitation: 340 nm, Emission: 520 nm/[…]). Total signal (0% inhibition) was calculated from wells containing 10 nL DMSO only.
The coding region of human RIPK1(1-324) flanked by NdeI site at 5′ end and stop codon TGA and XhoI site at 3′ end was codon optimized and gene synthesized at GenScript USA Inc. (Piscataway, N.J.) and subcloned into a modified pFastBacl vector (Invitrogen, Carlsbad, Calif.) with N-terminal His-GST-TVMV tag, to generate His-GST-TVMV-hRIPK1(1-324)-pFB. The fidelity of the synthetic fragment was confirmed by sequencing.

[2] = system: MLKL phosphorylation in HT29-L23 human colorectal adenocarcinoma cells; experiment: MLKL Phosphorylation High-Content Assay; assay type: cell-based; settings: 6 h, necroptosis induced with TNFα, SMAC mimetic and Z-VAD, read-out: pMLKL (IC50)
Description: MLKL Phosphorylation High-Content Assay
HT29-L23 human colorectal adenocarcinoma cells were maintained in RPMI 1640 medium containing 10% heat-inactivated FBS, 1% Pennicilin-Streptomycin and 10 mM HEPES. Cells were seeded at 2,000 cells/well in 384 w tissue culture-treated microplates (Greiner #781090-3B) and incubated at 37° C. (5% CO2/95% O2) for two days. On the day of assay, the cells were treated with test compounds at final concentrations of 6.25 to 0.106 μM for 30 min at 37° C. (5% CO2/95% O2). Necroptopsis was induced using a mixture of human TNFα (35 ng/mL) (Peprotech #300-01A), SMAC mimetic (from US 2015/0322111 A1) (700 nM) and Z-VAD (140 nM) (BD pharmingen #51-6936). Following six hours incubation at 37° C. (5% CO2/95% O2), the cells were fixed with 4% formaldedye (ACROS 11969-0010) for 15 min at room temperature and then permeabilized with phoshpate buffered saline (PBS) containing 0.2% Triton-X-100 for 10 min. MLKL phosporylation was detected using anti-MLKL (phospho S358) antibody (Abcam # ab187091) (1:1000 dilution in Blocking Buffer [PBS supplemented with 0.1% BSA]) with overnight incubation at 4° C. After washing three times in PBS, goat anti-rabbit Alexa-488 (1:1000 dilution) (Life Technologies, A11008) and Hoechst 33342 (Life Technologies, H3570) (1:2000 dilution) in Blocking Buffer were added for 1 h at room temperature. Following another three cycles of washes in PBS, the microplates were sealed, and cellular images were acquired in the Cellomics ArrayScan VTI high-content imager equipped with an X1 camera. Fluorescent images were taken using a 10× objective and the 386-23 BGRFRN_BGRFRN and 485-20 BGRFRN_BGRFRN filter sets, for nuclei and MLKL phosphorylation, respectively. The image sets were analyzed using the Compartmental Analysis Bioapplication software (Cellomics). The level of MLKL phosphorylation was quantified as MEAN_CircRingAvgIntenRatio. […] The IC50 value was defined as the concentration of compound that produces 50% of the maximal inhibition. The data were fitted using the 4-parameter logistic equation to calculate the IC50 and Ymax values.

Chain of His-GST-TVMV-hRIPK1(1-324) (Q13546 1-324): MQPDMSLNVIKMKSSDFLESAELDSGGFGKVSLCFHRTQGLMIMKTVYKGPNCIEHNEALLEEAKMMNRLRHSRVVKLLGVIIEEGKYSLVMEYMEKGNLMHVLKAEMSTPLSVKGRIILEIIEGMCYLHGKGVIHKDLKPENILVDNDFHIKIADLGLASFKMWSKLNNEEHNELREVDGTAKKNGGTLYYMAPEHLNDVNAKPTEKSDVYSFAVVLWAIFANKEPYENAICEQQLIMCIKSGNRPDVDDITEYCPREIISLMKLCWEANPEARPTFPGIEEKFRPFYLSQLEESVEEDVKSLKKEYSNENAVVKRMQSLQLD

SMILES	IC50 [1] [µM]	IC50 ([2]; Homo sapiens) [µM]	IC50 [2] [µM]
CC(=O)Nc1cn2nc(-c3cnc(C)c(C(=O)NCc4c(F)cccc4OC4CCCC4)c3)ccc2n1 [Example 223, N-{[2-(cyclopentyloxy)-6-fluorophenyl]methyl}-5-{2-acetamidoimidazo[1,2-b]pyridazin-6-yl}-2-methylpyridine-3-carboxamide]	0.004	0.003	–
COc1cc(C)c(-c2ccc3nc(NC(C)=O)cn3n2)cc1C(=O)NCc1cc(OC(F)(F)F)ccc1F [Example 421, 5-{2-acetamidoimidazo [1,2-b]pyridazin-6-yl}-N-{[2-fluoro-5-(trifluoromethoxy)phenyl]methyl}-2-methoxy-4-methylbenzamide]	0.002	0.01	–
CC(=O)Nc1cn2nc(-c3cc(C(=O)NCc4cc(F)cc(F)c4O[C@@H]4CCOC4)c(C)nc3C)ccc2n1 [Example 61, N-({3,5-difluoro-2-[(3R)-oxolan-3-yloxy]phenyl}methyl)-5-{2-acetamidoimidazo[1,2-b]pyridazin-6-yl}-2,6-dimethylpyridine-3-carboxamide]	0.033	0.258	–
COc1ncc(-c2ccc3nc(NC(C)=O)cn3n2)cc1C(=O)NC(C)c1ccccc1OC(F)(F)F (stereo not shown) [Example 139, 5-{2-acetamidoimidazo[1,2-b]pyridazin-6-yl}-2-methoxy-N-{1-[2-(trifluoro-methoxy)phenyl]ethyl}pyridine-3-carboxamide]	0.015	–	0.025
[2H]C([2H])([2H])Oc1nc(C)c(-c2ccc3nc(NC(C)=O)cn3n2)cc1C(=O)NC([2H])([2H])c1cc(OC(F)(F)F)ccc1F [Example 175, 5-{2-acetamidoimidazo[1,2-b]pyridazin-6-yl}-N-{[2-fluoro-5-(trifluoromethoxy)phenyl](deutero)methyl}-2-(deutero)methoxy-6-methylpyridine-3-carboxamide]	0.004	0.016	–
[2H]C([2H])(NC(=O)c1cc(-c2ccc3nc(NC(C)=O)cn3n2)cnc1C)c1cc(OC(F)(F)F)ccc1F [Example 208, 5-{2-acetamidoimidazo[1,2-b]pyridazin-6-yl}-N-{[2-fluoro-5-(trifluoromethoxy)phenyl] (deutero)methyl}-2-methylpyridine-3-carboxamide]	0.005	0.005	–
COc1cc(F)c(-c2ccc3nc(NC(C)=O)cn3n2)cc1C(=O)NCc1cc(F)ccc1C(=O)N1CCCC1(C)C [Example 419, N-{[2-(2,2-dimethylpyrrolidine-1-carbonyl)-5-fluorophenyl]methyl}-5-{2-acetamidoimidazo [1,2-b]pyridazin-6-yl}-4-fluoro-2-methoxybenzamide]	0.004	0.028	–
COc1ncc(-c2ccc3nc(NC(C)=O)cn3n2)cc1C(=O)NCc1ccc(F)c(F)c1OC(C)C1CC1 (stereo not shown) [Example 131, N-{[2-(1-cyclopropylethoxy)-3,4-difluorophenyl]methyl}-5-{2-acetamidoimidazo[1,2-b]pyridazin-6-yl}-2-methoxypyridine-3-carboxamide]	0.079	–	0.481
CC(=O)Nc1cn2nc(-c3cc(C(=O)NCc4cc(C(F)(F)F)ccc4F)cc(F)c3C)ccc2n1 [Example 372, 3-{2-acetamidoimidazo [1,2-b]pyridazin-6-yl}-5-fluoro-N-{[2-fluoro-5-(trifluoromethyl)phenyl]methyl}-4-methylbenzamide]	0.013	0.122	–
COc1nc(C)c(-c2ccc3nc(NC(C)=O)cn3n2)cc1C(=O)NCc1ccccc1OCC1CCC(F)(F)CC1 [Example 310, N-({2-[(4,4-difluorocyclohexyl)methoxy]phenyl}methyl)-5-{2-acetamidoimidazo[1,2-b]pyridazin-6-yl}-2-methoxy-6-methylpyridine-3-carboxamide]	0.021	0.125	–
COc1ncc(-c2ccc3nc(NC(=O)CC#N)cn3n2)cc1C(=O)NCc1ccccc1OC(F)(F)F [Example 32, 5-[2-(2-cyanoacetamido)imidazo[1,2-b]pyridazin-6-yl]-2-methoxy-N-{[2-(trifluoromethoxy)phenyl]methyl}pyridine-3-carboxamide]	0.078	0.177	–
[2H]C([2H])([2H])Oc1nc(C)c(-c2ccc3nc(NC(C)=O)cn3n2)cc1C(=O)NCc1cc(F)cc(F)c1O[C@H]1CCOC1 [Example 171, N-({3,5-difluoro-2-[(3S)-oxolan-3-yloxy]phenyl}methyl)-5-{2-acetamidoimidazo[1,2-b]pyridazin-6-yl}-2-(deutero)methoxy-6-methylpyridine-3-carboxamide]	0.003	0.003	–
COc1nc(C)c(-c2ccc3nc(NC(C)=O)cn3n2)cc1C(=O)NCc1cc(F)ccc1OCC1CCCC1 [Example 315, N-{[2-(cyclopentylmethoxy)-5-fluorophenyl]methyl}-5-{2-acetamidoimidazo[1,2-b]pyridazin-6-yl}-2-methoxy-6-methylpyridine-3-carboxamide]	0.005	0.009	–
CC(=O)Nc1cn2nc(-c3cnc(C)c(C(=O)NCc4cc(C(F)(F)F)ccn4)c3)ccc2n1 [Example 191, 5-{2-acetamidoimidazo[1,2-b]pyridazin-6-yl}-2-methyl-N-{[4-(trifluoromethyl)pyridin-2-yl]methyl}pyridine-3-carboxamide]	0.938	0.086	–
CC(=O)Nc1cn2nc(-c3cc(C(=O)N[C@@H](C)c4cc(OC(F)(F)F)ccc4F)cnc3C)ccc2n1 [Example 228, 5-{2-acetamidoimidazo[1,2-b]pyridazin-6-yl}-N-[(1S)-1-[2-fluoro-5-(trifluoromethoxy)phenyl]ethyl]-6-methylpyridine-3-carboxamide]	0.016	0.193	–
CC(=O)Nc1cn2nc(-c3cnc(Cl)c(C(=O)NCC[C@H](O)c4ccc(Cl)cc4)c3)ccc2n1 [Example 267, 2-chloro-N-[(3S)-3-(4-chlorophenyl)-3-hydroxypropyl]-5-{2-acetamidoimidazo[1,2-b]pyridazin-6-yl}pyridine-3-carboxamide]	0.081	0.383	–
[2H]C([2H])([2H])Oc1ncc(-c2ccc3nc(NC(C)=O)cn3n2)cc1C(=O)N[C@@H](C)c1cc(OC(F)(F)F)ccc1F [Example 41, 5-{2-acetamidoimidazo[1,2-b]pyridazin-6-yl}-N-[(1S)-1-[2-fluoro-5-(trifluoromethoxy)phenyl]ethyl]-2-(D3)methoxypyridine-3-carboxamide]	0.063	0.078	–
COc1c(F)cc(-c2ccc3nc(NC(C)=O)cn3n2)cc1C(=O)NCc1cc(OC(F)(F)F)ccc1F [Example 371, 5-{2-acetamidoimidazo [1,2-b]pyridazin-6-yl}-3-fluoro-N-{[2-fluoro-5-(trifluoromethoxy)phenyl]methyl}-2-methoxybenzamide]	0.005	0.015	–
COc1ncc(-c2ccc3nc(NC(C)=O)cn3n2)cc1C(=O)NCc1cc(F)cc(F)c1O[C@H]1CCOC1 [Example 98, N-({3,5-difluoro-2-[(3S)-oxolan-3-yloxy]phenyl}methyl)-5-{2-acetamidoimidazo[1,2-b]pyridazin-6-yl}-2-methoxypyridine-3-carboxamide]	0.002	0.039	–
CC(=O)Nc1cn2nc(-c3cc(F)c(C)c(C(=O)NCc4cccc(OC(F)(F)F)c4F)c3)ccc2n1 [Example 361, 5-{2-acetamidoimidazo [1,2-b]pyridazin-6-yl}-3-fluoro-N-{[2-fluoro-3-(trifluoromethoxy)phenyl]methyl}-2-methylbenzamide]	0.042	0.135	–
